Measurements as given in US6653479B1, “Crystalline form of 6-hydroxy-3-(4-[2-(piperidin-1-yl)ethoxy]phenoxy)-2-(4-methoxyphenyl)benzo[b] thiophene hydrochloride” (Eli Lilly and Company, priority 1999, dated 2003).

Experiments:
Type in all cases: physicochemical
[1] = Hygroscopicity (moisture sorption isotherms, VTI method)
Experimental: Hygroscopicicity studies were performed on F-I and F-III. Upon initial exposure of the samples to approximately 5% RH, there was an immediate weight gain of 1.5% and 1.7% moisture for F-I and F-III, respectively, equivalent to approximately 0.5 mole of water. Both forms show a continuous sorption of moisture through the entire humidity range, which is likely due to incorporation of water molecules in the lattices.
The moisture sorption profiles for F-I and F-III reveal that these forms are essentially non-stoichiometric hydrates. At ambient relative humidity (about 50% RH), F-I contains approximately 1.7% water, corresponding to 0.5 moles of water, while F-III has sorbed about 3.0% water which corresponds to about 0.85 moles of water. The bulk forms of F-I and F-III rapidly equilibrate with the atmosphere, so that the water content observed by analytical techniques is a reflection of the relative humidity at the time of data collection. Lot-to-lot differences observed in the DSC data likely results from the samples being hydrated to different extents due to different ambient storage conditions.
Hygroscopicity measurements were made for F-I and F-III using the VTI method as follows. Each sample was dried under vacuum at 60° C. until no further weight loss was detected, at which time the sample chamber was brought to 0% relative humidity. Moisture sorption isotherms were obtained at 25° C. using a VTI vacuum moisture balance with the following conditions: sample size 10-15 mg, adsorption/desorption range 0-95% relative humidity, step interval 5%, sample interval 10 minutes.

[2] = Stability at different relative humidities (XRD of stored samples); settings: entire relative humidity range
Experimental: XRD patterns were obtained for samples of F-I and F-III stored at different relative humidities (0, 22, 50, and 80%). There is a gradual shifting of the initial (0% RH) F-III peaks at about 13.8, 17.6, 18.0, 20.5 and 24.0° in 2θ as well as slight shifting of less intense peaks, as the relative humidity is increased. These observed changes in the XRD patterns of F-III indicate that the unit cell dimensions are changing, presumably to accommodate weakly held water molecules as the relative humidity is increased.
A similar experiment was carried out on F-I to determine whether varying the relative humidity would have a similar effect on its lattice (0, 25, 52, 73 and 95% RH). Very slight shifting of the 0% RH peaks at about 7.7, 18.3, 18.5, 20.5, 20.8° in 2θ is observed as the relative humidity is increased. […] The shifting of peaks in the XRD patterns of F-I is less dramatic than the peak shifts observed as F-III was exposed to different relative humidities.
XRD patterns were obtained on a Siemens D5000 X-ray powder diffractometer, equipped with a CuKα source (λ=1.54056 Å) and a Kevex solid-state detector, operating at 50 kV and 40 mA. Each sample was scanned between 4° and 35° in 2θ. Samples were allowed to equilibrate for at least 30 minutes at the desired temperature and/or relative humidity before data collection.

[3] = Comparison of aqueous solubility and dissolution rate; settings: F-I compared with F-III
[4] = Stability at ambient temperature relative to arzoxifene of '474; settings: relative to the arzoxifene produced by the procedures taught in '474
[5] = ambient relative humidity (about 50% RH)

COc1ccc(-c2sc3cc(O)ccc3c2Oc2ccc(OCCN3CCCCC3)cc2)cc1.Cl [F-I, 6-hydroxy-3-(4-[2-(piperidin-1-yl)ethoxy]phenoxy)-2-(4-methoxyphenyl)benzo[b]thiophene hydrochloride]
water content [1, 5]: approximately 1.7% | water content in moles of water [1, 5]: 0.5 mol | water equivalent of the weight gain ([1]; approximately 5% RH): approximately 0.5 mole | immediate weight gain of moisture ([1]; initial exposure to approximately 5% RH, 25° C.): 1.5% | stability over relative humidity range [2]: stable over the entire relative humidity range | aqueous solubilities [3]: comparable | dissolution rates [3]: comparable | stability at ambient temperature [4]: more stable
